{
  "source": "ChEMBL document CHEMBL3045266",
  "about": "“Lytic activity of l-menthol derivatives against the snow blight disease fungus, Micronectriella nivalis” (2003)",
  "key": {"[1]": {"tested_on": "Monographella nivalis var. nivalis", "assay": "Lytic activity against Monographella nivalis var. nivalis MAFF 305031 assessed as hyphal lysis at 0.2 mg/ml after 48 hr by cotton blue staining", "type": "functional"}, "[2]": {"tested_on": "Monographella nivalis var. nivalis", "assay": "Lytic activity against Monographella nivalis var. nivalis MAFF 305031 assessed as hyphal lysis at 0.025 to 0.2 mg/ml after 48 hr by cotton blue staining", "type": "functional, organism-based"}, "[3]": {"tested_on": "Monographella nivalis var. nivalis", "assay": "Lytic activity against Monographella nivalis var. nivalis MAFF 305031 assessed as hyphal lysis at 0.05 mg/ml after 48 hr by cotton blue staining", "type": "functional"}, "[4]": {"tested_on": "Monographella nivalis var. nivalis", "assay": "Lytic activity against Monographella nivalis var. nivalis MAFF 305031 assessed as hyphal lysis after 48 hr by cotton blue staining", "type": "functional, organism-based"}},
  "note": "Activity calls are given as the source filed them. The rule behind the calls is not given here.",
  "data": [
    {"smiles": "CC(=O)O[C@@H]1C[C@H](C)CC[C@H]1C(C)C", "values": [
      {"measurement": "Activity", "setting": "[1]", "result": 51.2, "unit": "%"},
      {"measurement": "Activity", "setting": "[2]", "result": "Active"}
    ]},
    {"smiles": "CC(=O)O[C@@H]1C[C@@](C)(O)CC[C@H]1C(C)C", "note": "[(-)-(1S,3R,4S)-1-HYDROXYMENTHYL 3-MONOACETATE]", "values": [
      {"measurement": "Activity", "setting": "[1]", "result": 66, "unit": "%"},
      {"measurement": "Activity", "setting": "[2]", "result": "Active"}
    ]},
    {"smiles": "CC(C)[C@@H]1C[C@H](O)[C@@H](C)C[C@H]1O", "note": "[(-)-(1S,3R,4S,6S)-6-HYDROXYMENTHOL]", "values": [
      {"measurement": "Activity", "setting": "[1]", "result": 85, "unit": "%"},
      {"measurement": "Activity", "setting": "[3]", "result": 57.1, "unit": "%"},
      {"measurement": "Activity", "setting": "[4]", "result": "Dose-dependent effect"}
    ]},
    {"smiles": "CC(=O)O[C@H]1C[C@@H](C(C)(C)O)[C@H](OC(C)=O)C[C@@H]1C", "values": [
      {"measurement": "Activity", "setting": "[1]", "result": 95.2, "unit": "%"},
      {"measurement": "Activity", "setting": "[2]", "result": "Active"}
    ]},
    {"smiles": "CC(=O)O[C@H]1C[C@@H](C(C)C)[C@H](OC(C)=O)C[C@@H]1C", "values": [
      {"measurement": "Activity", "setting": "[1]", "result": 91.5, "unit": "%"},
      {"measurement": "Activity", "setting": "[2]", "result": "Active"}
    ]},
    {"smiles": "CC(C)[C@@H]1CC[C@](C)(O)C[C@H]1O", "note": "[(-)-(1S,3R,4S)-1-HYDROXYMENTHOL]", "values": [
      {"measurement": "Activity", "setting": "[1]", "result": 63.9, "unit": "%"},
      {"measurement": "Activity", "setting": "[4]", "result": "Dose-dependent effect"}
    ]},
    {"smiles": "C[C@H]1C[C@@H](O)[C@H](C(C)(C)O)C[C@@H]1O", "values": [
      {"measurement": "Activity", "setting": "[1]", "result": 81.9, "unit": "%"},
      {"measurement": "Activity", "setting": "[3]", "result": 68.1, "unit": "%"},
      {"measurement": "Activity", "setting": "[4]", "result": "Dose-dependent effect"}
    ]},
    {"smiles": "CC(C)[C@@H]1CC[C@@H](C)C[C@H]1O", "note": "[LEVOMENTHOL]", "values": [
      {"measurement": "Activity", "setting": "[1]", "result": 45.7, "unit": "%"}
    ]}
  ]
}
